Assay results from PMC5571344, “Identification and Mode of Action of a Plant Natural Product Targeting Human Fungal Pathogens” (Antimicrobial Agents and Chemotherapy, 2017).
Values after ≈ are worked out from the molar mass of the structure shown. Where two headings read alike, the source gives them in different places.

How the values were obtained:
Assay in all cases: microbe, parasite or virus in culture
[1] = tested on: C. albicans; set-up: species or system Candida strains; broth microdilution antifungal susceptibility according to EUCAST protocols, growth inhibition MIC; conditions: Candida albicans, EUCAST, read-out: MIC Fluconazole
Procedure: (§1) The results of [compound left out] susceptibility assays with several clinically relevant Candida species are shown on Fig. 2B. All strains, except C. glabrata, were highly susceptible to [compound left out]. […] [compound left out] […] The yeast and bacterial strains used in the study are listed in Table S1 in the supplemental material. NPs were dissolved in DMSO to 10 μg/ml. [compound left out] [compound left out] was purchased from Phytolab (GmbH), dissolved in DMSO at a 2 mM concentration, heated for 20 min at 50°C for solubilization, and stored at −20°C until usage.

[2] = tested on: Pichia kudriavzevii C. krusei; set-up: species or system Candida strains; broth microdilution antifungal susceptibility according to EUCAST protocols, growth inhibition MIC; conditions: DSY2293, EUCAST, read-out: MIC Fluconazole
Procedure: as §1

[3] = tested on: C. tropicalis; set-up: species or system Candida strains; broth microdilution antifungal susceptibility according to EUCAST protocols, growth inhibition MIC; conditions: Candida tropicalis, EUCAST, read-out: MIC Fluconazole
Procedure: as §1

[4] = tested on: C. albicans; set-up: species or system Candida strains; broth microdilution antifungal susceptibility in YNB buffered at pH 7.0, growth inhibition MIC; conditions: Candida albicans, YNB pH 7.0
Procedure: as §1

[5] = tested on: Pichia kudriavzevii C. krusei; set-up: species or system Candida strains; broth microdilution antifungal susceptibility in YNB buffered at pH 7.0, growth inhibition MIC
Procedure: as §1

[6] = tested on: C. tropicalis; set-up: species or system Candida strains; broth microdilution antifungal susceptibility in YNB buffered at pH 7.0, growth inhibition MIC; conditions: Candida tropicalis, YNB pH 7.0
Procedure: as §1

SMILES: OC(Cn1cncn1)(Cn1cncn1)c1ccc(F)cc1F [Fluconazole]
- MIC ([1]; DSY227): 0.5 µg/mL (≈ 1.63 µM)
- MIC ([1]; DSY288): 1 µg/mL (≈ 3.27 µM)
- MIC ([1]; DSY297): 2 µg/mL (≈ 6.53 µM)
- MIC ([1]; DSY299): 0.25 µg/mL (≈ 0.816 µM)
- MIC [2]: 32 µg/mL (≈ 104 µM)
- MIC ([3]; DSY381): 0.5 µg/mL (≈ 1.63 µM)
- MIC ([3]; DSY2274): 2 µg/mL (≈ 6.53 µM)
- MIC ([3]; DSY2336): 16 µg/mL (≈ 52.2 µM)
- MIC ([3]; DSY2374): 8 µg/mL (≈ 26.1 µM)
- MIC ([3]; DSY2825): 128 µg/mL (≈ 418 µM)
- MIC ([3]; DSY2897): 4 µg/mL (≈ 13.1 µM)

SMILES: C[C@H]1CC[C@]2(NC1)O[C@H]1C[C@H]3[C@@H]4CC[C@H]5C[C@@H](O)CC[C@]5(C)[C@H]4CC[C@]3(C)[C@H]1[C@@H]2C [compound 22, Tomatidine]
- MIC ([4]; DSY227): 0.625 µM (≈ 0.26 µg/mL)
- MIC ([4]; DSY281): 0.312 µM (≈ 0.13 µg/mL)
- MIC ([4]; DSY290): 2.5 µM (≈ 1.04 µg/mL)
- MIC ([5]; DSY2293, YNB pH 7.0): 0.625 µM (≈ 0.26 µg/mL)
- MIC ([5]; DSY2294, YNB pH 7.0): > 40 µM
- MIC ([5]; DSY2302, YNB pH 7.0): 1.25 µM (≈ 0.52 µg/mL)
- MIC ([6]; DSY381): 0.312 µM (≈ 0.13 µg/mL)
- MIC ([6]; DSY826): 0.15 µM (≈ 0.0623 µg/mL)
- MIC ([6]; DSY2274): 2.5 µM (≈ 1.04 µg/mL)
- MIC ([6]; DSY2310): 1.25 µM (≈ 0.52 µg/mL)
- MIC ([6]; DSY2825): 5 µM (≈ 2.08 µg/mL)
